Experiment: molar heat capacity at constant pressure
Conditions: 101.33 kPa, Crystal

COC(=O)[C@H](Cc1ccccc1)NC(=O)[C@H](CC(C)C)NC(=O)[C@H](CCSC)NC=O [methyl formyl-L-methionyl-L-leucyl-L-phenylalaninate]
Conditions | molar heat capacity at constant pressure [J/K/mol]
5 K | 1.99
6.02 K | 2.6
6.13 K | 2.71
6.28 K | 2.91
6.43 K | 3.21
6.59 K | 3.52
6.73 K | 3.88
6.88 K | 4.29
7.04 K | 4.56
7.19 K | 4.97
7.35 K | 5.42
7.52 K | 5.83
7.66 K | 6.28
7.84 K | 6.73
7.98 K | 7.23
8.17 K | 7.72
8.33 K | 8.13
8.5 K | 8.58
8.7 K | 9.08
8.84 K | 9.48
8.98 K | 9.89
9.13 K | 10.3
9.3 K | 10.7
9.45 K | 11
9.62 K | 11.5
9.78 K | 11.8
9.95 K | 12.3
10 K | 12.5
10.27 K | 13.2
10.63 K | 14.1
11.04 K | 15
11.45 K | 16
11.88 K | 17.1
12.29 K | 18
12.79 K | 19.2
13.24 K | 20.4
13.71 K | 21.7
14.18 K | 22.7
14.65 K | 24.1
15 K | 25.1
15.12 K | 25.3
15.6 K | 26.78
15.99 K | 28
16.64 K | 29.85
17.1 K | 31.58
17.62 K | 33.24
18.1 K | 34.79
18.78 K | 37.21
19.22 K | 38.75
19.72 K | 40.59
20 K | 41.76
21.41 K | 47.32
23.4 K | 55.2
25 K | 61.13
25.67 K | 63.45
27.96 K | 71.89
30 K | 79.28
30.29 K | 80.5
32.65 K | 88.71
35.04 K | 96.64
37.44 K | 105
39.87 K | 112.9
40 K | 113.3
42.32 K | 120.6
44.78 K | 127.7
47.26 K | 134.1
49.75 K | 139.9
50 K | 140.8
52.01 K | 145.9
54.78 K | 153.1
57.3 K | 160.1
59.87 K | 167.1
60 K | 167.6
62.41 K | 174.3
64.96 K | 181.3
66.9 K | 186.5
70 K | 194.3
70.06 K | 194.1
72.6 K | 201
75.15 K | 206
77.73 K | 212.1
80 K | 216.1
80.1 K | 216.1
82.93 K | 221.7
85.5 K | 227
88.2 K | 232.3
90 K | 236.3
90.6 K | 238.4
90.85 K | 237.1
93.51 K | 243.4
96.19 K | 248.8
98.88 K | 253.3
100 K | 256.4
101.58 K | 258.9
104.28 K | 264
106.98 K | 269.4
109.69 K | 274.9
110 K | 275.6
112.38 K | 279.5
115.08 K | 284.3
117.78 K | 289.3
120 K | 292.9
120.47 K | 293.3
123.16 K | 297.5
125.85 K | 302.5
128.53 K | 306.7
130 K | 309.1
131.22 K | 310.6
133.99 K | 316.2
136.67 K | 319.1
139.35 K | 323.5
140 K | 324.7
142.02 K | 328.1
144.68 K | 332.5
147.35 K | 336.5
150 K | 340.1
150.01 K | 340.6
152.68 K | 344.7
155.33 K | 348.5
157.99 K | 352.9
160 K | 355.6
160.64 K | 357.2
163.28 K | 361.6
165.92 K | 365.7
168.56 K | 368.7
170 K | 371.3
171.19 K | 373.7
174.6 K | 377.8
176.09 K | 381.5
179.5 K | 385.9
180 K | 387.3
182.11 K | 390.6
184.71 K | 394.8
187.31 K | 398.3
189.9 K | 402.2
190 K | 403.7
192.49 K | 407.4
195.07 K | 411.8
197.64 K | 416.1
200 K | 420.3
200.2 K | 420
202.74 K | 423.8
205.27 K | 428.2
207.77 K | 433.6
210 K | 437.2
210.28 K | 436.5
212.77 K | 442.5
215.23 K | 446.4
217.6 K | 450.8
220 K | 454.3
220.02 K | 455.6
222.4 K | 459.1
224.71 K | 463.1
227.02 K | 467.1
229.33 K | 471.1
230 K | 471.6
231.66 K | 475.2
234 K | 478.4
236.36 K | 484.2
238.72 K | 488
240 K | 489
241.09 K | 490.9
243.46 K | 493.2
245.83 K | 498.9
248.18 K | 503
250 K | 506.5
250.5 K | 507.1
252.78 K | 509.6
254.83 K | 514.5
257.07 K | 518.7
259.3 K | 523.3
260 K | 524.3
261.5 K | 528
263.68 K | 532.6
265.84 K | 535.2
267.99 K | 539.2
270 K | 542.4
270.16 K | 543.2
272.34 K | 547.3
274.5 K | 552.1
276.67 K | 554.9
277.1 K | 557.8
279.97 K | 561.2
280 K | 561.1
282.11 K | 564.9
284.23 K | 568.8
286.34 K | 571.5
288.8 K | 578
290 K | 580.7
290.49 K | 581
292.53 K | 584.6
294.54 K | 587.8
296.39 K | 591.6
298.15 K | 597.6
298.4 K | 596.2
300 K | 601.6
300.24 K | 601.4
302.09 K | 606.6
304.77 K | 614.7
307.42 K | 619.1
309.83 K | 624.8
310 K | 624.4
312.19 K | 631
314.41 K | 635
316.68 K | 638.7
318.91 K | 645.4
320 K | 649.7
321.09 K | 652.2
323.22 K | 661.1
325.19 K | 665.5
327.12 K | 669.6
329.13 K | 677.2
330 K | 678.4
330.96 K | 681.9
332.75 K | 688.8
334.5 K | 691.9
335.18 K | 695
336.88 K | 700.5
338.54 K | 704.4
340 K | 711.3
340.17 K | 710.6
341.74 K | 717
343.27 K | 723.9
344 K | 726

From the NIST ThermoML archive (doi:10.1021/je400879v)
